From US20180027813A1, “Use of an agent to control resistant rodents” (priority 2015, published 2018)

Assays:
[1] = test system: brown rat VKORC1 strain Y139C; set-up: key to Practical resistance of the strain: X = Strain exhibits a practical resistance to:; conditions: cited from earlier work; for Sensitivity of animals with VKORC1 Tyr139Cys (in words): Y139C brown rats and house mice, difenacoum in rats only; for Practical resistance of the strain / Resistance in laboratory and field experiments (in words): strain Y139C
[2] = test system: brown rat (Rattus norvegicus) strain Y139S; conditions: determined on the basis of LD50; cited from earlier work
[3] = test system: brown rat (Rattus norvegicus) strain Y139C; conditions: BCR resistance test; cited from earlier work
[4] = test system: brown rat VKORC1 strain L120Q Berkshire; set-up: key: X = Strain exhibits a practical resistance to:; conditions: cited from earlier work
[5] = test system: brown rat (Rattus norvegicus) strain Y139F; conditions: BCR resistance test; cited from earlier work
[6] = test system: resistant rat strain "Westphalia" (VKORC1 Y139C); test: Laboratory feeding tests with single anticoagulants; type: in vivo; conditions: feed baits with one active ingredient
Description: The resistant rat strain “Westphalia”, characterized by the VKORC1 polymorphism Y139C, is resistant to the second-generation anticoagulants bromadiolone and difenacoum, and also to the first-generation active ingredients. Feed baits containing one of these active ingredients in the authorized concentration are not effective against animals of this strain.

[7] = test system: brown rat VKORC1 strain Y139F; set-up: key: X = Strain exhibits a practical resistance to:; conditions: cited from earlier work
[8] = test system: brown rat (Rattus norvegicus) strain L120Q Hampshire; conditions: BCR resistance test; cited from earlier work
[9] = test system: brown rat VKORC1 strain L128Q; set-up: key: X = Strain exhibits a practical resistance to:; conditions: cited from earlier work
[10] = test system: brown rat VKORC1 strain Y139S; set-up: key to Practical resistance of the strain: X = Strain exhibits a practical resistance to:; conditions: cited from earlier work; for Tolerance / practical resistance (in words): strain Y139S (Wales); for Practical resistance of the strain: strain Y139S
[11] = test system: brown rats of the resistant strain Y139C; test: Feeding experiment with brown rats of the resistant strain Y139C (Example 1); type: in vivo, brown rat; conditions: for Mortality (in words): resistant rats
Procedure: A cholecalciferol concentration of 100 mg/kg is enough to make it possible to achieve mortality rates of up to 100% (see the examples).
[…] received feed baits, as described below, over a period of 4 days. Consumption and mortality were determined afterwards. One group (6 rats, Group 1) was fed a feed bait consisting of coumatetralyl (375 mg/kg) and cholecalciferol (100 mg/kg). The other group (Group 2) was fed coumatetralyl on its own (375 mg/kg). All animals consumed the feed baits except for one animal from Group 2. Consumption was highest during the first 24 hours. On the third and fourth day, there was only little consumption. […] Two males each consumed approximately 47 mg/kg coumatetralyl and 12.5 mg/kg cholecalciferol (based on the body weight). The females consumed from 50 to 79 mg/kg coumatetralyl and from 13 to 21 mg/kg cholecalciferol (based in each case on the body weight). In Group 2, no mortality was observed, although the animals consumed 94 mg/kg coumatetralyl (mean value based on the body weight).

[12] = test system: rats caught on the farm (strain Y139C area); test: Blood coagulation test with coumatetralyl on rats caught on the farm; type: in vivo, rat; conditions: blood coagulation test before control
Description: The term “resistance(s)” in the context of the invention refers to “practical resistance”, characterized in that the rodenticide in question no longer achieves sufficient biological efficacy even with proper use and good acceptance of the bait by the rodents (see also Greaves—1994, Buckle A. P. and Smith R. H. eds. “Rodent Pests and their Control”, CABI, Wallingford, Oxon, UK, pages 197-217). A person skilled in the art can make a clear and unambiguous assessment in accordance with this definition as to whether a practical resistance is present or not. In general, the degree of “resistance” can be described by specifying a resistance factor. The resistance factor (RF) is usually calculated on the basis of the lethal dose (LD50) or of the effective dose (ED50). […] LD50 and ED50 are each determined experimentally for each strain. […] Until the 1980s, RFs were determined on the basis of the LD50. This method was later replaced by blood coagulation tests (BCR resistance tests), by means of which the ED50 can be determined more accurately (Prescott et al. 2007: A standardised BCR-resistance test for all anticoagulant rodenticides. Int. J. Pest Mgt. 53 (4), 265-272). Therefore, it is preferred according to the invention that RF be calculated via the quotient formed from the ED50 of the resistant strain and of a sensitive strain considered to be the reference. […]

SMILES | Sensitivity of animals with VKORC1 Tyr139Cys (in words) [1] | Practical resistance of the strain [1] | Resistance in laboratory and field experiments (in words) [1] | Resistance factor (RF) for bromadiolone [2] | Resistance factor (RF) for bromadiolone [3] | Practical resistance of the strain [4] | Resistance factor (RF) for bromadiolone [5] | Mortality [6] | Practical resistance of the strain [7] | Resistance factor (RF) for bromadiolone [8] | Practical resistance of the strain [9] | Tolerance / practical resistance (in words) [10] | Practical resistance of the strain [10] | Mortality (in words) ([11]; cholecalciferol by itself at 100 mg/kg) | Mortality (in words) ([11]; coumatetralyl by itself) | Mortality ([11]; feed baits over 4 days, 6 rats of strain Y139C per group) | Share of rats on the farm resistant for coumatetralyl [12]
O=c1oc2ccccc2c(O)c1C(CC(O)c1ccc(-c2ccc(Br)cc2)cc1)c1ccccc1 (stereo not drawn) [bromadiolone] | virtually completely insensitive | X | resistant | 2.7-6.9 | 15-17 | X | 7-9 | no mortality | X | 10-14 | X | no practical resistance | – | – | – | – | –
O=C1c2ccccc2C(=O)C1C(=O)C(c1ccccc1)c1ccc(Cl)cc1 (stereo not drawn) [chlorophacinone, (1′-p-chlorophenyl-1′-phenyl)-2-acetylindane-1,3-dione] | – | X | – | – | – | X | – | – | X | – | X | – | X | – | – | – | –
C=C1CC[C@H](O)C/C1=C/C=C1\CCC[C@]2(C)[C@@H]([C@H](C)CCCC(C)C)CC[C@@H]12 [cholecalciferol] | – | – | – | – | – | – | – | – | – | – | – | – | – | does not cause mortality | – | – | –
O=c1oc2ccccc2c(O)c1C1CCCc2ccccc21 (stereo not drawn) [coumatetralyl, 3-(1′,2′,3′,4′-tetrahydro-1′-naphthyl)-4-hydroxycoumarin] | virtually completely insensitive | X | – | – | – | X | – | no mortality | X | – | X | – | X | – | does not cause mortality | no mortality | approximately 46%
O=c1oc2ccccc2c(O)c1C1CC(c2ccc(-c3ccccc3)cc2)Cc2ccccc21 (stereo not drawn) [difenacoum, 3-(3′-paradiphenylyl-1′,2′,3′,4′-tetrahydro-1′-naphthyl)-4-hydroxycoumarin] | virtually completely insensitive | X | resistant | – | – | X | – | – | – | – | – | – | – | – | – | – | –
CC(=O)CC(c1ccccc1)c1c(O)c2ccccc2oc1=O (stereo not drawn) [warfarin, (1-phenyl-2-acetyl)-3-ethyl-4-hydroxycoumarin] | virtually completely insensitive | X | – | – | – | X | – | – | X | – | X | somewhat more tolerant | X | – | – | – | –
